According to patent publication US20190167761A1, “PHARMACEUTICAL COMPOSITION FOR PREVENTING OR TREATING STRESS-RELATED DISEASE, INCLUDING DISC1 PROTEIN OR GENE ENCODING THE SAME” (POSTECH ACADEMY-INDUSTRY FOUNDATION, priority 2017, published 2019):
“Also recorded” adds a separate entry of the source. Where two headings read alike, the source gives them in different places.

Legend:
[1] = tested on: ER-mitochondria Ca^2+ transfer; experiment: Oxidative stress (H2O2 / MSC)-induced mitochondrial Ca2+ levels in cerebral cortical neurons; format: cell-based, mouse
Experimental: At this time, to measure mitochondrial Ca^2+ levels at specific time points during incubation of neurons with H2O2, Rhod2/AM, which is a mitochondria-specific chemical Ca^2+ indicator, was used instead of Mito-GCaMP6 capable of causing variations due to different expression levels of Mito-GCaMP6 at multiple time points.

[2] = tested on: ER-mitochondria Ca^2+ transfer; experiment: Corticosterone-induced mitochondrial Ca2+ levels in cerebral cortical neurons; format: cell-based, mouse; details: for corticosterone-induced increase in mitochondrial Ca2+ levels: preincubation with the agent
Experimental: (§1) To verify the hypothesis, changes in ROS and mitochondrial Ca^2+ levels in cerebral cortical neurons were assessed after treatment with corticosterone (CORT), which is a glucocorticoid stress hormone.

[3] = tested on: cerebral cortical neurons; experiment: Corticosterone-induced ROS generation in cerebral cortical neurons; format: cell-based, mouse
Experimental: as §1

[4] = tested on: cerebral cortical neurons; experiment: ER Ca2+ storage capacity / IP3 generation after corticosterone; format: cell-based, mouse; details: corticosterone for 1 hour
Experimental: To verify the hypothesis, changes in ROS and mitochondrial Ca^2+ levels in cerebral cortical neurons were assessed after treatment with corticosterone (CORT), which is a glucocorticoid stress hormone. […] To determine whether this glucocorticoid-dependent increase in mitochondrial Ca^2+ levels relies on the induction of oxidative stress, apocynin (APO), which is an antioxidant and a ROS scavenger, was used. […] In contrast, it was confirmed that, when neurons were treated with corticosterone for 1 hour, the capacity of the ER for Ca^2+ storage or IP3 generation was not changed.

IP3R1 [5] = experiment: Competitive IP3 binding assay; details: proteins immunoprecipitated from HEK293FT cells; 3 nM [3H]-IP3, 4° C., 1 hour
Experimental: Transfected HEK293FT cells were lysed in a NP40 buffer, and then the proteins were immunoprecipitated with antibodies. The immunoprecipitated proteins were incubated with 3 nM [^3H]-IP3 at 4° C. for 1 hour and the concentration of cold IP3 was increased in a Ca^2+-free CLM buffer. Meanwhile, brains were isolated from adult WT or DISC1 LI mice and lysed in a NP40 buffer by sonication, and then endogenous IP3R1 and the DISC1 protein were immunoprecipitated with specific antibodies, and then incubated with [^3H]-IP3 in the same manner as described above, and the concentration of cold IP3 was increased. Thereafter, the resulting mixture was filtered with a GF/B filter and washed three times with a CLM buffer, and then the filter was dried, and radioactivity was measured using a scintillation counter.
In IP3R1, the ligand-binding and modulatory domains are critical regions for ligand binding of IP3Rs, and thus the inventors of the present disclosure examined the influence of DISC1 on binding between IP3R1 and its ligand, i.e., IP3. For this, competitive IP3 binding analysis was performed using IP3R1, DISC1, or DISC1^Δ1-201, which was isolated from HEK293FT cells by immunoprecipitation with antibodies according to the methods of Examples 1 to 3.

[6] = tested on: ER-mitochondria Ca^2+ transfer; experiment: IP3-induced mitochondrial Ca2+ imaging (Mito-GCaMP6) in permeabilized cerebral cortical neurons; format: cell-based, mouse
Experimental: Neurons (DIV7-8) transfected with Mito-GCaMP6 along with each construct were permeabilized with digitonin and Ca^2+-free ionomycin at 37° C. for 2 minutes in a modified EGTA- and Ca^2+-free buffer, and then was exposed to IP3. To measure the effect of RiBFM on mitochondrial Ca^2+ responses, neurons were transfected with Mito GCaMP6, AKAP1-FKBP12, and FRB-SAC1 together with pFlag-cmv2 or Flag-DISC1 on DIV5-6, and neurons pre-incubated with rapamycin for 5 minutes were exposed to IP3 in the same manner as described above.
By considering the functional association between IP3R1 and DISC1 at the MAM, which was verified in the above example, the inventors of the present disclosure examined whether or not DISC1 was involved in regulating ER-mitochondria Ca^2+ transfer. For this, expression constructs for GCaMP6, which is a genetically encoded Ca^2+ indicator, were modified by combining the target sequences for mitochondria or the ER. Subsequently, it was confirmed that the organelle-specific GCaMP6 constructs were expressed in cerebral cortical neurons. In the case of ER Ca^2+ measurement, the results were verified using ER-GCaMP3, which has a relatively low affinity for Ca^2+. […]

IP3R1 [7] = experiment: Immunoprecipitation analysis of interaction between DISC1 and IP3R1; format: binding
From the text: IP3R1 is known to be predominantly expressed in the brain and abundant in the MAM. Therefore, the MAM localization of DISC1 was confirmed through Example 2, and to examine the interaction between DISC1 and IP3R1, the inventors of the present disclosure performed immunoprecipitation analysis on the two proteins. […] In addition, as illustrated in the immunoblotting results of FIG. 2C, it was confirmed that the endogenous DISC1 protein and the IP3R1 protein were expressed together in whole lysates and the crude MAM fraction ((MAM+Mito), which was derived from the brains of adult mice.

[8] = treatment with corticosterone for 1 hour

NCCOB(c1ccccc1)c1ccccc1 [2-APB, 2-aminoethyl diphenylborinate]
mitochondrial Ca2+ levels during incubation with H2O2 [1]: these results were not shown
corticosterone-induced increase in mitochondrial Ca2+ levels [2]: not observed

COc1cc(C(C)=O)ccc1O [APO, apocynin]
corticosterone-induced mitochondrial Ca2+ levels ([2]; DISC1 shRNA vs CTL shRNA neurons, corticosterone 1 hour): significantly reduced
difference in mitochondrial Ca2+ accumulation between WT and DISC1 LI neurons ([2]; corticosterone): significantly reduced
corticosterone-induced increase in mitochondrial Ca2+ levels [2]: significantly reduced

OO [H2O2, Hydrogen peroxide]
mitochondrial Ca2+ levels during incubation with H2O2 ([1]; Rhod2/AM, specific time points): increased proportional to the incubation time

C[C@]12C[C@H](O)[C@H]3[C@@H](CCC4=CC(=O)CC[C@@]43C)[C@@H]1CC[C@@H]2C(=O)CO [corticosterone]
ROS levels [3, 8]: significant increases
capacity of the ER for Ca2+ storage or IP3 generation [4]: not changed
mitochondrial Ca2+ levels [2, 8]: significant increases

B1: DISC1: disrupted in schizophrenia 1 (DISC1) protein, amino acid sequence of SEQ ID NO: 1 or SEQ ID NO: 2 (protein, UniProt Q9NRI5 1-854, looked up)
Disrupted in schizophrenia 1 …: MPGGGPQGAPAAAGGGGVSHRAGSRDCLPPAACFRRRRLARRPGYMRSSTGPGIGFLSPAVGTLFRFPGGVSGEESHHSESRARQCGLDSRGLLVRSPVSKSAAAPTVTSVRGTSAHFGIQLRGGTRLPDRLSWPCGPGSAGWQQEFAAMDSSETLDASWEAACSDGARRVRAAGSLPSAELSSNSCSPGCGPEVPPTPPGSHSAFTSSFSFIRLSLGSAGERGEAEGCPPSREAESHCQSPQEMGAKAASLDGPHEDPRCLSRPFSLLATRVSADLAQAARNSSRPERDMHSLPDMDPGSSSSLDPSLAGCGGDGSSGSGDAHSWDTLLRKWEPVLRDCLLRNRRQMEVISLRLKLQKLQEDAVENDDYDKAETLQQRLEDLEQEKISLHFQLPSRQPALSSFLGHLAAQVQAALRRGATQQASGDDTHTPLRMEPRLLEPTAQDSLHVSITRRDWLLQEKQQLQKEIEALQARMFVLEAKDQQLRREIEEQEQQLQWQGCDLTPLVGQLSLGQLQEVSKALQDTLASAGQIPFHAEPPETIRSLQERIKSLNLSLKEITTKVCMSEKFCSTLRKKVNDIETQLPALLEAKMHAISGNHFWTAKDLTEEIRSLTSEREGLEGLLSKLLVLSSRNVKKLGSVKEDYNRLRREVEHQETAYETSVKENTMKYMETLKNKLCSCKCPLLGKVWEADLEACRLLIQSLQLQEARGSLSVEDERQMDDLEGAAPPIPPRLHSEDKRKTPLKVLEEWKTHLIPSLHCAGGEQKEESYILSAELGEKCEDIGKKLLYLEDQLHTAIHSHDEDLIQSLRRELQMVKETLQAMILQLQPAKEAGEREAAASCMTAGVHEAQA
corticosterone-induced ROS generation ([3]; DISC1 knockdown or overexpression in neurons): reduced ROS levels
degree to which mitochondrial Ca2+ levels were increased ([1]; overexpression, 1 hour after H2O2 incubation, compared to control): significantly reduced
binding ability of unlabeled IP3 relative to [3H]IP3 bound to IP3R1 (IP3R1 [5]): decreased
IP3-induced increase in mitochondrial Ca2+ levels ([6]; overexpression in permeabilized neurons, compared to control (Vector)): significantly reduced the increase in mitochondrial Ca^2+ levels; also recorded: decreased
IP3R1 domains that DISC1 interacted with (IP3R1 [7]; expression constructs for functional domains of IP3R1): a ligand-binding domain (LBD) and modulatory domains (MD1, MD2, and MD3)
interaction with IP3R1 (GFP-IP3R1) (IP3R1 [7]; immunoprecipitation): strong interaction

B2: hDISC1: human DISC1 resistant to shRNA (protein, UniProt Q9NRI5 1-854, looked up)
Disrupted in schizophrenia 1 …: B1 Disrupted in schizophrenia 1 …
modifications: shRNA-resistant silent changes
notes: human DISC1 resistant to shRNA
IP3-dependent increase in mitochondrial Ca2+ ([6]; DISC1 expression inhibited, compared to control neurons (CTL shRNA)): restored similarly to the control
